These are literature values, as cited in patent US20100297262A1, “[…] ACTIVE COMPOSITIONS COMPRISING OXIDATIVE STRESS MODULATORS (OSM), NEW CHEMICAL […], COMPOSITIONS AND USES” (COLBY PHARMACEUTICAL COMPANY, priority 2009, published 2010).

The structures appear in SMILES notation.

The subject of data set [1] is Friedreich's ataxia patient primary skin fibroblasts. The settings on record: Treatment: Glutathione depletion; cited from earlier work.
For another data set, the system named is Jurkat cells. The settings on record: Treatment: H2O2; cited from earlier work.
For data set [2], the system named is Isolated kidney mitochondria. The settings on record: Treatment: Superoxide; cited from earlier work.
Data set [3] concerns Rat primary cerebellar granule cells. Conditions: Treatment: Ethanol; cited from earlier work.
In a further data set the test system is COS-7 cells. The settings on record: Treatment: H2O2; cited from earlier work.
Data set [4] concerns Bovine aortic endothelial cells. Conditions: Treatment: H2O2 or hydroperoxyoctadecadienoic acid; cited from earlier work.
In data set [5] the test system is Human colon cancer cell lines (HCT116 and RKO). The settings on record: Treatment: 5-Fluorouracil; cited from earlier work.
For data set [6], the system named is Isolated liver mitochondria. The settings on record: Treatment: Ferrous iron/ascorbate; cited from earlier work.

Regarding `Cc1c(C)c2c(c(C)c1O)CCC(C)(CC[P+](c1ccccc1)(c1ccccc1)c1ccccc1)O2` (centres unmarked) [MitoVE-C2], the “Outcome: cell death” value in data set [1] was “Decreases cell death”. Further, the “Outcome: apoptosis” value in the data set with Jurkat cells was “Decreases apoptosis”. Further, the “Outcome: activation of uncoupling proteins” value in data set [2] is on record as “Blocks activation of”. The “Outcome: dichlorofluorescein fluorescence and cell death” value in data set [3] is “Decreases”. Moreover, the “Outcome: growth factor receptor and kinase phosphorylation” value with COS-7 cells is on record as “Decreases growth factor”. In addition, the “Outcome: transferrin receptor expression and iron uptake” value in data set [4] is recorded as “fluorescence. Decreases”. The “Outcome: apoptosis from 5-FU chemotherapy” value in data set [5] is reported as “Decreases apoptosis from 5-”. In data set [6], the “Outcome: lipid peroxidation, protein carbonyl formation and loss of membrane potential” value is listed as “Decreases lipid peroxidation,”.
